The target in one assay is T1, BRISC(FL) (Homo sapiens, UniProt P46736+Q15018+Q9NXR7).
T1 construct: The four-subunit human BRISC (full-length (FL) and MERIT40ΔN, Abraxas2ΔC) complex was cloned; made in house; host or cells: Spodoptera frugiperda (Sf9) insect cells
Nature of the assay: Native mass spectrometry of BRISC with inhibitor. It is filed as binding. Conditions: 10 μM BRISC(FL), 1 mM inhibitor. On the procedure: Samples were buffer exchanged into 500 mM ammonium acetate using Zeba Spin 7K MWCO desalting columns (ThermoFisher). Gold and palladium coated nanospray tips were prepared in-house and mounted on the nano-electrospray ionisation source. Mass spectra were acquired on a Q Exactive Ultra-High Mass Range Hybrid Quadrupole-Orbitrap mass spectrometer (Thermo Fisher), optimised for mass resolution at high m/z ratios. Data were visualised and processed using Mass Lynx (v4.1) and UniDec (v2.7.1).

For another assay, the target named is BRISC BRCC36 Leu169Ala (Homo sapiens, UniProt P46736+Q15018+Q9NXR7, L169A). Nature of the assay: IQF DUB assay, BRISC mutant BRCC36 Leu169Ala. It is filed as biochemical. Conditions: FIG. 4B. The protocol:
(§1) The four-subunit human BRISC (full-length (FL) and MERIT40ΔN, Abraxas2ΔC) complex was cloned using the MultiBac system and co-expressed in Spodoptera frugiperda (Sf9) insect cells^32. BRISC mutants were cloned into pFastBac vectors in the Bac-to-Bac system (ThermoFisher), baculoviruses generated in Sf9 cells and used for co-infection of Trichoplusia ni (Tni) cells. All BRISC complexes were purified as previously described^12,13.
(§2) BRISC complexes were tested for activity in DUB reaction buffer containing 50 mM HEPES-NaOH pH 7.0, 100 mM NaCl, 0.1 mg/mL BSA, 1 mM DTT, and 0.003% Brij-35. […] Inhibitors were assayed at concentrations up to 200 μM. […] DUB activity was measured using internally quenched fluorescent (IQF) K63-linked diUb (Lifesensors, catalogue number: DU6303) at 50 or 100 nM. Cleaved diUb was monitored by measuring fluorescence intensity (Ex. 540 nm, Em. 580 nm; dichroic mirror 560 nm). Fluorescence intensity was measured every minute for 30 minutes at 30° C. Fluorescence intensity units for the first 10 minutes were plotted against time to generate a linear reaction progress curve, where the initial velocity (v0) corresponds to the gradient of the curve. IC50 values were calculated using the GraphPad Prism (v8.0) built-in dose-response equation for inhibitor concentration vs. response (variable slope). […]

Another assay has as its target BRISC Abraxas2 Ile133Trp (Homo sapiens, UniProt P46736+Q15018+Q9NXR7, I133W). Nature of the assay: IQF DUB assay, BRISC mutant Abraxas2 Ile133Trp. It is filed as biochemical. Conditions: FIG. 4B. On the procedure: as §1, §2
The next assay concerns BRISC BRCC45 mutants. Nature of the assay: IQF DUB assay, BRISC BRCC45 mutants. Format: biochemical, human. The following applies: four BRCC45 residues mutated, FIG. 4B. The protocol: as §1, §2
Assay [1] addresses BRISC (Homo sapiens, UniProt P46736+Q15018+Q9NXR7). The assay can be described thus: Mass photometry of BRISC oligomeric state. It is filed as binding. The following applies: purified BRISC mixed with inhibitor, FIG. 2B. On the procedure:
(§3) Microscope coverslips were prepared as previously described^33. All mass photometry experiments were performed using a One^MP mass photometer (Refeyn Ltd, Oxford, UK). For preliminary BRISC-inhibitor measurements, 1 μM BRISC(FL) was mixed with either DMSO or inhibitor at 330 μM and incubated for 15 minutes on ice. Prior to MP measurement, the BRISC-inhibitor mix was diluted in gel filtration buffer (25 mM HEPES, 150 mM NaCl, 1 mM TCEP) for a final concentration of BRISC at 10 nM (0.05% DMSO). 12 μL of this dilution was used for the final MP measurement, following autofocus stabilisation. […] The BRISC-inhibitor mix was used directly for MP measurement using buffer-free autofocus stabilisation. Movies were recorded for 60 seconds using AcquireMP (Refeyn, UK), and were processed using DiscoverMP (Refeyn, UK). Mass photometry image processing has been previously described^33. Briefly, contrast-to-mass (C2M) calibration was performed using protein standards (66-669 kDa) diluted in gel filtration buffer. […] The mass distribution from each run is in a histogram, where count refers to each landing event and a Gaussian sum is fitted to the data. The relative amount of each species is calculated as the area of each Gaussian, where a refers to the standard deviation of the fitted Gaussian. […] Curves were fitted and EC50 values were calculated using the GraphPad Prism (v8.0) built-in dose-response equation for concentration of agonist vs. response (variable slope).

The subject of assay [2] is BRISC. The assay can be described thus: Mass photometry of BRISC oligomeric state. Format: binding, human. Conditions: mass photometry. On the procedure:
as §3

Another assay concerns the target BRISC BRCC36 Trp130Ala (Homo sapiens, UniProt P46736+Q15018+Q9NXR7, W130A). Nature of the assay: IQF DUB assay, BRISC mutant BRCC36 Trp130Ala. Format: biochemical. The following applies: FIG. 4B. The protocol:
as §1, §2

In another assay the target is BRISC BRCC36 Arg167Ala (Homo sapiens, UniProt P46736+Q15018+Q9NXR7, R167A). Nature of the assay: IQF DUB assay, BRISC mutant BRCC36 Arg167Ala. It is filed as biochemical. Conditions: FIG. 4B. On the procedure:
as §1, §2

Molecules are shown by their SMILES.

For the compound `O=C(NC1C2CNCC21)c1nn(C(=O)c2c(Cl)cccc2Cl)cc1NC(=O)c1c(Cl)cccc1Cl` (stereo not drawn) [FX-171-C], the “BRISC species by native mass spectrometry” value on BRISC(FL) is listed as “BRISC dimers with a MW consistent with a 4:4:4:4 stoichiometry were observed”. Besides, the “inhibitor sensitivity of mutant” value at BRISC BRCC36 Leu169Ala is “severely affected”; against BRISC Abraxas2 Ile133Trp, “no effect on inhibitor sensitivity”; on BRISC BRCC36 Trp130Ala, “severely affected”; at BRISC BRCC36 Arg167Ala, “remained inhibitor sensitive”. In addition, in the assay with BRISC BRCC45 mutants, the “ability to recognise the inhibitor” value was “reduced”. The “mass photometry counts, 1:1:1:1 complex” value on BRISC [1] is given as 13%. Moreover, the “mass photometry counts, dimer” value on BRISC [1] came out at 52%. For the same compound, the “dimer formation at increasing inhibitor concentration” value in the assay with BRISC [2] is recorded as “dose-dependent increase in dimer formation”.

Values taken from patent publication US20230317203A1, “SCREENING METHOD” (University of Leeds, priority 2022, published 2023).
